What all share (assay): growth of human tumour cells (NCI), 48 h
Test [1] relates to K562.
The subject of test [2] is SN12C.
Test [3] relates to MDA-N.
In test [4] the test system is CAKI-1.
Test [5] has as its system RPMI-8226.
Test [6] deals with IGROV-1.
The test system of test [7] is KM12.
In test [8] the test system is HCT-116.
Test [9] relates to OVCAR-5.
The test system of test [10] is MDA-MB-435.
Test [11] deals with HOP-62.
Test [12] concerns 786-0.
Test [13] deals with TK-10.
Test [14] has as its system A498.
Test [15] has as its system SK-MEL-5.
Test [16] has as its system ACHN.
Test [17] deals with HCT-15.
For test [18], the system named is NCI-H460.

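Results reflect a 48-hour exposure of cells in 96-well plates to compound at five concentrations. GI50 = concentration required for 50% inhibition of growth.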 Calls of active or inactive are those of the source. No stated cut-off is given here; in the data, active = GI50 up to about 1.1 µM and inactive = higher. Non-standard residues stand in square brackets, D forms with d. Residues, ends and D or L forms follow the SMILES beside them. *: point of attachment. Ac5c = NC1(C(=O)O)CCCC1; Boc = CC(C)(C)OC(=O)*; tBu = CC(C)(C)*

In the case of `O=C1CSC(c2ccc(Cl)cc2)N1c1ccc(-n2c(-c3ccccc3)nc3ccccc3c2=O)cc1` (centres undefined), the GI50 was 36.8 µM (inactive) in test [1]; > 100 µM (inactive) in [2]; > 100 µM (inactive) in test [3]; > 100 µM (inactive) in test [4]; > 100 µM (inactive) in test [5]; 31.9 µM (inactive) in test [6]. Further, the GI50 is 24.4 µM (inactive) in test [7]; 34.3 µM (inactive) in [8]; > 100 µM (inactive) in test [9]; 56 µM (inactive) in test [10]; > 100 µM (inactive) in test [11]; 87.1 µM (inactive) in [12]. The GI50 in test [13] is > 100 µM (inactive); in test [14], 83.4 µM (inactive); in test [15], 54.7 µM (inactive); in test [16], > 100 µM (inactive); in [17], 20.4 µM; in test [18], 36.5 µM (inactive).

Regarding `CC1CC(N2CCOCC2)=Nc2ccccc2N1C` (centres undefined), the GI50 in test [1], in [2], in test [3], in test [4], in test [5] and in [6] was > 100 µM (inactive) in each case. For the same molecule, the GI50 in test [7], in test [8], in [9], in test [10], in [11] and in [12] was > 100 µM (inactive) throughout. Also, the GI50 in test [13] is > 100 µM (inactive); in test [14], > 100 µM (inactive); in test [15] it was > 100 µM (inactive); in test [16], > 100 µM (inactive); in test [17], more than 100 µM; in test [18], > 100 µM (inactive).

As for `CC(C)OC(=O)NNc1cc(Cl)ccc1Cl`, the GI50 in [1] is 19.2 µM (inactive); in test [2] it was > 100 µM (inactive); in [3], 73.6 µM (inactive); in test [4], 79.6 µM (inactive); in [5] it was 44.5 µM (inactive); in test [6], 55.5 µM (inactive). The GI50 in test [7] was 65.3 µM (inactive); in test [8], 73.3 µM (inactive); in [9], > 100 µM (inactive); in test [10], > 100 µM (inactive); in [11], > 100 µM (inactive); in test [12], > 100 µM (inactive). Also, the GI50 in test [13] is 36.6 µM (inactive); in [14] it was 24.3 µM (inactive); in [15], 39.4 µM (inactive); in test [16], > 100 µM (inactive); in [17], 91.2 µM; in test [18], 80.7 µM (inactive).

Turning to `O=c1cc(-c2ccccc2)[nH]c2ccc(N3CCCC3)cc12`, the GI50 in [1] is < 0.01 µM (active); in [2], 0.0451 µM (active); in test [3], < 0.01 µM (active); in test [4], < 0.0175 µM (active); in test [5] it was 0.0366 µM (active); in test [6], 0.267 µM (active). Moreover, the GI50 is 0.039 µM (active) in [7]; < 0.0113 µM (active) in test [8]; 31.6 µM (inactive) in [9]; < 0.01 µM (active) in [10]; 0.0163 µM (active) in test [11]; < 0.0114 µM (active) in test [12]. The GI50 in test [13] was 5.62 µM (inactive); in test [14], 0.0272 µM (active); in test [15] it was 0.0366 µM (active); in test [16] it was 0.0222 µM (active); in test [17], 0.0743 µM; in [18] it was 0.0275 µM (active).

For the molecule `O=C(Nc1ccc(Cl)cc1)[C-](C(=O)c1ccc(Br)cc1)[n+]1cccc(-c2ccc(Cl)cc2)n1`, the GI50 in test [1] was 6.3 µM (inactive); in test [2], 2.88 µM (inactive); in test [3] it was 4.53 µM (inactive); in test [4] it was 2.56 µM (inactive); in test [5] it was 3.81 µM (inactive); in test [6], 2.77 µM (inactive). Also, the GI50 was 3.1 µM (inactive) in test [7]; 3.09 µM (inactive) in test [8]; 4.24 µM (inactive) in [9]; 3.07 µM (inactive) in [10]; 6.28 µM (inactive) in test [11]; 2.56 µM (inactive) in test [12]. Besides, the GI50 in [13] was 5.74 µM (inactive); in [14], 9.71 µM (inactive); in test [15] it was 3.18 µM (inactive); in [16], 4.84 µM (inactive); in test [17] it was 3.93 µM; in test [18], 3.44 µM (inactive).

As for `C=CCN1C(=O)CS/C1=N\NC(=O)CSc1nc2ccccc2c(=O)n1CC`, the GI50 in test [1] is > 100 µM (inactive); in test [2], > 100 µM (inactive); in test [3], > 100 µM (inactive); in test [4] it was 75.2 µM (inactive); in [5], > 100 µM (inactive); in [6], > 100 µM (inactive). Further, the GI50 in test [7] was > 100 µM (inactive); in [8], > 100 µM (inactive); in [9], 84.1 µM (inactive); in test [10], > 100 µM (inactive); in test [11], 84.1 µM (inactive); in [12] it was > 100 µM (inactive). In addition, the GI50 in [13] is > 100 µM (inactive); in test [14], 35 µM (inactive); in test [15], > 100 µM (inactive); in test [16] it was > 100 µM (inactive); in test [17], more than 100 µM; in [18] it was 5.37 µM (inactive).

For `CC(OC(C)(C)C)C(NC(=O)C(CCCCNC(=O)OC(C)(C)C)NC(=O)C(Cc1c[nH]c2ccccc12)NC(=O)C(N)Cc1ccccc1)C(=O)NC(Cc1ccccc1)C(=O)NC1(C(=O)O)CCCC1` (centres undefined) (H-FWK(Boc)T(tBu)F[Ac5c]-OH; configuration not given here), the GI50 in [1], in test [2], in [3], in [4], in [5] and in [6] was > 100 µM (inactive) in each case. The GI50 in test [7], in [8], in test [9], in [10], in test [11] and in [12] was > 100 µM (inactive) in each case. Also, the GI50 was > 100 µM (inactive) in [13]; > 100 µM (inactive) in test [14]; > 100 µM (inactive) in test [15]; > 100 µM (inactive) in [16]; more than 100 µM in [17]; > 100 µM (inactive) in [18].

`c1ccc(CSSSCc2ccccc2)cc1` [DIBENZYL TRISULFIDE]: the GI50 in [1] was 0.127 µM (active); in [2], 0.912 µM (active); in [3] it was 1.25 µM (inactive); in test [4] it was 1.41 µM (inactive); in test [5], 0.313 µM (active); in test [6], 2.8 µM (inactive). In addition, the GI50 is 2.67 µM (inactive) in test [7]; 0.272 µM (active) in test [8]; 3.62 µM (inactive) in test [9]; 0.568 µM (active) in [10]; 0.964 µM (active) in test [11]; 0.463 µM (active) in test [12]. In addition, the GI50 in [13] is 1.62 µM (inactive); in [14] it was 18.6 µM (inactive); in test [15], 1.88 µM (inactive); in test [16] it was 1.69 µM (inactive); in test [17], 0.581 µM; in test [18], 1.7 µM (inactive).

Source of the values: ChEMBL document CHEMBL1201862, “PubChem BioAssay data set” (2004).
